Earlier results in patent publication US20250043462A1, “INSECT REPELLENT POLYETHYLENE TEREPHTHALATE FIBERS” (The Government of the United States of America, as …, priority 2023, published 2025).

Settings: commercially available repellent sprays

In the case of `CCN(CC)C(=O)c1cccc(C)c1` [DEET, N,N,-diethyl-meta-toluamide], the “duration of repellency before reapplication” value is listed as “up to 10 h”.

For `CCC(C)OC(=O)N1CCCCC1CCO` (centres unmarked) [Picaridin, 1-(1-methylpropoxycarbonyl)-2-(2-hydroxyethyl)piperidine], the “duration of repellency before reapplication” value is listed as no more than 8 h.
